Assay [1] has as its target T1, Serine protease 1 (Bos taurus, UniProt P00760).
T1 sequence (P00760 whole entry): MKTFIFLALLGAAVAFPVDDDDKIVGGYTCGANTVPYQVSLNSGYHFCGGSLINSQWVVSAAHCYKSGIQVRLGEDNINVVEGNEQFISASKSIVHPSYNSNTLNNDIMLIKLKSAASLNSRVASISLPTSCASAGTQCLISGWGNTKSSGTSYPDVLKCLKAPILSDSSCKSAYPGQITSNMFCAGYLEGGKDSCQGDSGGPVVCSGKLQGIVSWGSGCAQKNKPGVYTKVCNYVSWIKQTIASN
The assay can be described thus: Enzyme Inhibition Assay. To be noted: pH 7.4; 22 °C. The procedure: (§1) The apparent Ki values were then calculated according to the Cheng-Prusoff equation: Ki = IC50/1 + [S]/Km.

Assay [2] deals with T2, Coagulation factor VII (Homo sapiens, UniProt P08709).
T2 sequence (P08709 whole entry): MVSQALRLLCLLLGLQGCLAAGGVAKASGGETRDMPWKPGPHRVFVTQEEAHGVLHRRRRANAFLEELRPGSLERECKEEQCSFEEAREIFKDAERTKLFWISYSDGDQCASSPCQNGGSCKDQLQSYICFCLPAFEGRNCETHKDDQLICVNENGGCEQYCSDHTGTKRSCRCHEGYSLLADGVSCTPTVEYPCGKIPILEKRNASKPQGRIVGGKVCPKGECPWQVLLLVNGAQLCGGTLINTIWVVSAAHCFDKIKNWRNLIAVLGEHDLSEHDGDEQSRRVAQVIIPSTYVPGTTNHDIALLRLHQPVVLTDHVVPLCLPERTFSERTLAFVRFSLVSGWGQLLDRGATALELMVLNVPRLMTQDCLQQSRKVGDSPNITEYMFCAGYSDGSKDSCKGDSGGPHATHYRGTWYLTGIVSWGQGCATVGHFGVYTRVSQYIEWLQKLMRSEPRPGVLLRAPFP
The experiment in a line: Enzyme Inhibition Assay. The note with it: pH 7.4; 22 °C. The method, then: as §1

What is called Ki is the dissociation constant of the complex between target and ligand, obtained from inhibition or displacement. Read a high Ki as lower affinity. In assay [1], `O=C(O)Cc1cc(-c2cccc([N+](=O)[O-])c2)c(O)c(-c2nc3ccccc3[nH]2)c1` [2-[3-(1H-1,3-benzodiazol-2-yl)-4-hydroxy-5-(3-nitrophenyl)phenyl]acetic acid] returned a Ki of over 150 µM. On to `CN(C)CCNC(=O)NCc1cccc(-c2cc(CC(=O)O)cc(-c3cc4nc(N)ccc4[nH]3)c2O)c1` [2-(3-{5-amino-1H-pyrrolo[3,2-b]pyridin-2-yl}-5-{3-[({[2-(dimethylamino)ethyl]carbamoyl}amino)methyl]phenyl}-4-hydroxyphenyl)acetic acid], for which, in assay [2], the Ki turned out to be 1.4 µM. Turning to `CS(=O)(=O)c1cccc(-c2cc(CC(=O)O)cc(-c3cc4nc(N)ccc4[nH]3)c2O)c1` [2-(3-{5-amino-1H-pyrrolo[3,2-b]pyridin-2-yl}-4-hydroxy-5-(3-methanesulfonylphenyl)phenyl)acetic acid], affinity in assay [2] was put at a Ki of 7.4 µM. For the compound `NC(=O)Nc1cccc(-c2cc(CC(=O)O)cc(-c3cc4nc(N)ccc4[nH]3)c2O)c1` [2-(3-{5-amino-1H-pyrrolo[3,2-b]pyridin-2-yl}-5-[3-(carbamoylamino)phenyl]-4-hydroxyphenyl)acetic acid], the affinity in assay [2], expressed as Ki, was 12 µM. The compound `Nc1ccc2[nH]c(-c3cc(CC(=O)O)cc(-c4cccc([N+](=O)[O-])c4)c3O)nc2n1` [2-(3-{5-amino-1H-imidazo[4,5-b]pyridin-2-yl}-4-hydroxy-5-(3-nitrophenyl)phenyl)acetic acid] returned a Ki in assay [1] of over 150 µM.

The values are drawn from BindingDB's records for doi:10.1016/j.bmcl.2006.01.017 (Celera, 2006).
